Data: publication PMC9389804 (Journal of Hematology & Oncology, 2022)
Where “and” joins values, the source holds several entries; their conditions need not be identical. Equal entries are not always repeated.

Experiment: safety assessments (adverse events, NCI CTCAE)
[1] = Grade 3/4 hematologic TRAE, all 165 patients
[2] = TRAE G 3/4, Accelerated phase CML n=38
[3] = TRAE G 3/4, Chronic phase CML n=127
[4] = TRAE any grades, Accelerated phase CML n=38
[5] = TRAE any grades, Chronic phase CML n=127

Experimental: Adverse events were assessed continuously and graded according to NCI CTCAE v5.0.18. Complete blood count with differential, serum chemistries, and physical examinations were performed before the study; weekly during Cycles 1 and 2; on alternate weeks in Cycles 3 and 4; and monthly thereafter.

## Cc1ccc(C(=O)Nc2ccc(CN3CCN(C)CC3)c(C(F)(F)F)c2)cc1C#Cc1cnc2[nH]ncc2c1 [olverembatinib]
[1]
  Anemia: 23.0%
  Neutropenia: 11.5%
  Thrombocytopenia: 51.5%
[2]
  Anemia: 12 (31.6) n (%)
  Arthralgia: 1 (2.6) n (%)
  Asthenia: 0 n (%)
  Hematologic: 26 (68.4) n (%)
  Hyperbilirubinemia: 1 (2.6) n (%)
  Hyperglycemia: 0 n (%)
  Hypertriglyceridemia: 1 (2.6) n (%)
  Hypoalbuminemia: 0 n (%)
  Hypocalcemia: 0 n (%)
  Hypokalemia: 1 (2.6) n (%)
  Hyponatremia: 0 n (%)
  Increased alanine aminotransferase: 1 (2.6) n (%)
  Increased alkaline phosphatase: 0 n (%)
  Increased aspartate aminotransferase: 2 (5.3) n (%)
  Increased creatine phosphokinase: 1 (2.6) n (%)
  Increased γ-glutamyl transferase: 0 n (%)
  Leukopenia: 13 (34.2) n (%)
  Myalgia: 0 n (%)
  Neutropenia: 8 (21.1) n (%)
  Nonhematologic: 20 (52.6) n (%)
  Pain in extremity: 1 (2.6) n (%)
  Proteinuria: 1 (2.6) n (%)
  Pyrexia: 4 (10.5) n (%)
  Rash: 0 n (%)
  Sinus tachycardia: 0 n (%)
  Skin pigmentation: 0 n (%)
  Thrombocytopenia: 23 (60.5) n (%)
  Treatment-related adverse events: 34 (89.5) n (%)
[3]
  Anemia: 26 (20.5) n (%)
  Arthralgia: 0 n (%)
  Asthenia: 0 n (%)
  Hematologic: 67 (52.8) n (%)
  Hyperbilirubinemia: 3 (2.4) n (%)
  Hyperglycemia: 1 (0.8) n (%)
  Hypertriglyceridemia: 11 (8.7) n (%)
  Hypoalbuminemia: 0 n (%)
  Hypocalcemia: 0 n (%)
  Hypokalemia: 1 (0.8) n (%)
  Hyponatremia: 1 (0.8) n (%)
  Increased alanine aminotransferase: 3 (2.4) n (%)
  Increased alkaline phosphatase: 1 (0.8) n (%)
  Increased aspartate aminotransferase: 2 (1.6) n (%)
  Increased creatine phosphokinase: 10 (7.9) n (%)
  Increased γ-glutamyl transferase: 5 (3.9) n (%)
  Leukopenia: 21 (16.5) n (%)
  Myalgia: 0 n (%)
  Neutropenia: 11 (8.7) n (%)
  Nonhematologic: 61 (48.0) n (%)
  Pain in extremity: 1 (0.8) n (%)
  Proteinuria: 5 (3.9) n (%)
  Pyrexia: 5 (3.9) n (%)
  Rash: 1 (0.8) n (%)
  Sinus tachycardia: 0 n (%)
  Skin pigmentation: 0 n (%)
  Thrombocytopenia: 62 (48.8) n (%)
  Treatment-related adverse events: 97 (76.4) n (%)
TRAE G 3/4, Total n=165
  Anemia: 38 (23.0) n (%)
  Arthralgia: 1 (0.6) n (%)
  Asthenia: 0 n (%)
  Hematologic: 93 (56.4) n (%)
  Hyperbilirubinemia: 4 (2.4) n (%)
  Hyperglycemia: 1 (0.6) n (%)
  Hypertriglyceridemia: 12 (7.3) n (%)
  Hypoalbuminemia: 0 n (%)
  Hypocalcemia: 0 n (%)
  Hypokalemia: 2 (1.2) n (%)
  Hyponatremia: 1 (0.6) n (%)
  Increased alanine aminotransferase: 4 (2.4) n (%)
  Increased alkaline phosphatase: 1 (0.6) n (%)
  Increased aspartate aminotransferase: 4 (2.4) n (%)
  Increased creatine phosphokinase: 11 (6.7) n (%)
  Increased γ-glutamyl transferase: 5 (3.0) n (%)
  Leukopenia: 34 (20.6) n (%)
  Myalgia: 0 n (%)
  Neutropenia: 19 (11.5) n (%)
  Nonhematologic: 81 (49.1) n (%)
  Pain in extremity: 2 (1.2) n (%)
  Proteinuria: 6 (3.6) n (%)
  Pyrexia: 9 (5.5) n (%)
  Rash: 1 (0.6) n (%)
  Sinus tachycardia: 0 n (%)
  Skin pigmentation: 0 n (%)
  Thrombocytopenia: 85 (51.5) n (%)
  Treatment-related adverse events: 131 (79.4%) n (%) and 131 (79.4) n (%)
[4]
  Anemia: 24 (63.2) n (%)
  Arthralgia: 8 (21.1) n (%)
  Asthenia: 6 (15.8) n (%)
  Hematologic: 36 (94.7) n (%)
  Hyperbilirubinemia: 13 (34.2) n (%)
  Hyperglycemia: 10 (26.3) n (%)
  Hypertriglyceridemia: 23 (60.5) n (%)
  Hypoalbuminemia: 6 (15.8) n (%)
  Hypocalcemia: 19 (50.0) n (%)
  Hypokalemia: 10 (26.3) n (%)
  Hyponatremia: 10 (26.3) n (%)
  Increased alanine aminotransferase: 9 (23.7) n (%)
  Increased alkaline phosphatase: 5 (13.2) n (%)
  Increased aspartate aminotransferase: 10 (26.3) n (%)
  Increased creatine phosphokinase: 5 (13.2) n (%)
  Increased γ-glutamyl transferase: 9 (23.7) n (%)
  Leukopenia: 19 (50.0) n (%)
  Myalgia: 8 (21.1) n (%)
  Neutropenia: 8 (21.1) n (%)
  Nonhematologic: 38 (100.0) n (%)
  Pain in extremity: 7 (18.4) n (%)
  Proteinuria: 19 (50.0) n (%)
  Pyrexia: 9 (23.7) n (%)
  Rash: 8 (21.1) n (%)
  Sinus tachycardia: 7 (18.4) n (%)
  Skin pigmentation: 31 (81.6) n (%)
  Thrombocytopenia: 33 (86.8) n (%)
  Treatment-related adverse events: 38 (100.0) n (%)
[5]
  Anemia: 66 (52.0) n (%)
  Arthralgia: 11 (8.7) n (%)
  Asthenia: 12 (9.4) n (%)
  Hematologic: 102 (80.3) n (%)
  Hyperbilirubinemia: 56 (44.1) n (%)
  Hyperglycemia: 33 (26.0) n (%)
  Hypertriglyceridemia: 72 (56.7) n (%)
  Hypoalbuminemia: 20 (15.7) n (%)
  Hypocalcemia: 45 (35.4) n (%)
  Hypokalemia: 32 (25.2) n (%)
  Hyponatremia: 28 (22.0) n (%)
  Increased alanine aminotransferase: 50 (39.4) n (%)
  Increased alkaline phosphatase: 16 (12.6) n (%)
  Increased aspartate aminotransferase: 49 (38.6) n (%)
  Increased creatine phosphokinase: 43 (33.9) n (%)
  Increased γ-glutamyl transferase: 38 (29.9) n (%)
  Leukopenia: 37 (29.1) n (%)
  Myalgia: 23 (18.1) n (%)
  Neutropenia: 18 (14.2) n (%)
  Nonhematologic: 127 (100.0) n (%)
  Pain in extremity: 14 (11.0) n (%)
  Proteinuria: 65 (51.2) n (%)
  Pyrexia: 21 (16.5) n (%)
  Rash: 19 (15.0) n (%)
  Sinus tachycardia: 23 (18.1) n (%)
  Skin pigmentation: 108 (85.0) n (%)
  Thrombocytopenia: 93 (73.2) n (%)
  Treatment-related adverse events: 127 (100.0) n (%)
TRAE any grades, Total n=165
  Anemia: 90 (54.5) n (%)
  Arthralgia: 19 (11.5) n (%)
  Asthenia: 18 (10.9) n (%)
